The term ED50 denotes the midpoint of the dose-response relation. As usually defined, the LD50 is the dose at which mortality reaches 50%.

The values that follow come from ChEMBL document CHEMBL3271991, “A series of hexahydro[1,4]oxazino[3,4-a]isoquinolines as potential neuroleptics” (J Med Chem, 1978).

Data set [1] concerns Gerbillinae. In words: Neuroleptic activity in gerbil assessed as escape latency time at 80 mg/kg, ip measured up to 50 mins by sidman avoidance test relative to control. The data set is classed as functional. The settings on record: route intraperitoneal.
The test system of data set [2] is Gerbillinae. As to the kind of experiment: Neuroleptic activity in gerbil assessed as escape latency time at 40 mg/kg, ip measured up to 50 mins by sidman avoidance test relative to control. The class given is functional. The following applies: route intraperitoneal.
Data set [3] concerns Gerbillinae. As to the kind of experiment: Neuroleptic activity in gerbil assessed as escape latency time at 20 mg/kg, ip measured up to 50 mins by sidman avoidance test relative to control. The class given is functional. The following applies: route intraperitoneal.
The test system of data set [4] is Mus musculus. As to the kind of experiment: Neuroleptic activity in ip dosed mouse assessed as blockade of traction reflex by measuring failure to grasp wire with hind paws measured for 5 secs. The data set is classed as functional.
For data set [5], the system named is Mus musculus. As to the kind of experiment: Neuroleptic activity in ip dosed mouse assessed as blockade of prehensile reflex by measuring failure to hang measured for 5 secs. The class given is functional.
A short description of data set [6]: Toxicity in wild fox assessed as ataxia at 4 mg/kg, ip. The settings on record: vulpes vulpes, in vivo. Also noted: dose 4 mg/kg, route intraperitoneal. The data set is classed as organism-based.
For data set [7], the system named is Vulpes vulpes. As to the kind of experiment: Neuroleptic activity in wild fox assessed as taming effect at 4 mg/kg, ip. Further details: dose 4 mg/kg. The data set is classed as functional, organism-based.
Data set [8] deals with Gerbillinae. As to the kind of experiment: Neuroleptic activity in gerbil assessed as escape latency time at 1 mg/kg, ip measured up to 50 mins by sidman avoidance test relative to control. The following applies: route intraperitoneal. The class given is functional.
Data set [9] relates to Mus musculus. As to the kind of experiment: Neuroleptic activity in ip dosed mouse assessed as blockade of corneal reflex by measuring failure to blink. The class given is functional. The following applies: Cornea.
Data set [10] concerns Mus musculus. In words: Neuroleptic activity in ip dosed mouse assessed as blockade of righting reflex by measuring failure to right to normal position measured for 30 secs. The data set is classed as functional.
The test system of data set [11] is Gerbillinae. As to the kind of experiment: Neuroleptic activity in gerbil assessed as escape latency time at 0.5 mg/kg, ip measured up to 50 mins by sidman avoidance test relative to control. The class given is functional. The settings on record: route intraperitoneal.
For data set [12], the system named is Gerbillinae. As to the kind of experiment: Neuroleptic activity in gerbil assessed as escape latency time at 2 mg/kg, ip measured up to 50 mins by sidman avoidance test relative to control. The class given is functional. The following applies: route intraperitoneal.
Data set [13] in a line: Toxicity in ip dosed mouse. The class given is organism-based. The following applies: in vivo.
Data set [14] concerns Gerbillinae. In words: Neuroleptic activity in gerbil assessed as escape latency time at 8 mg/kg, ip measured up to 50 mins by sidman avoidance test relative to control. The class given is functional. The settings on record: route intraperitoneal.
The nature of data set [15]: Toxicity in wild fox assessed as ataxia at 16 mg/kg, ip. The class given is organism-based. Also noted: dose 16 mg/kg, route intraperitoneal. The settings on record: vulpes vulpes, in vivo.
Data set [16] concerns Rhesus monkey. As to the kind of experiment: Toxicity in monkey assessed as ataxia at 16 mg/kg, ip. The data set is classed as organism-based, Macaca mulatta. Also noted: dose 16 mg/kg, route intraperitoneal. The following applies: in vivo.
Data set [17] concerns Gerbillinae. In words: Neuroleptic activity in gerbil assessed as escape latency time at 4 mg/kg, ip measured up to 50 mins by sidman avoidance test relative to control. The data set is classed as functional. The settings on record: route intraperitoneal.
Data set [18] has as its system Gerbillinae. In words: Neuroleptic activity in ip dosed gerbil up to 50 mins by sidman avoidance test. The data set is classed as functional. The settings on record: read-out: MED.
Data set [19] is described as follows: Toxicity in po dosed mouse. The class given is organism-based. The settings on record: in vivo.
The subject of data set [20] is Gerbillinae. As to the kind of experiment: Neuroleptic activity in gerbil assessed as escape latency time at 16 mg/kg, ip measured up to 50 mins by sidman avoidance test relative to control. The data set is classed as functional. The settings on record: route intraperitoneal.
Data set [21] concerns Gerbillinae. As to the kind of experiment: Neuroleptic activity in gerbil assessed as escape latency time at 2.5 mg/kg, ip measured up to 50 mins by sidman avoidance test relative to control. The data set is classed as functional. The following applies: route intraperitoneal.
Data set [22] deals with Gerbillinae. As to the kind of experiment: Neuroleptic activity in gerbil assessed as escape latency time at 10 mg/kg, ip measured up to 50 mins by sidman avoidance test relative to control. The settings on record: route intraperitoneal. The class given is functional.
Data set [23] has as its system Gerbillinae. In words: Neuroleptic activity in gerbil assessed as escape latency time at 5 mg/kg, ip measured up to 50 mins by sidman avoidance test relative to control. The following applies: route intraperitoneal. The class given is functional.
Data set [24] has as its system Mus musculus. In words: Neuroleptic activity in mouse assessed as blockade of prehensile reflex by measuring failure to hang at 640 mg/kg, ip measured for 5 secs. The class given is functional, organism-based. Further details: dose 640 mg/kg.
The test system of data set [25] is Mus musculus. In words: Neuroleptic activity in mouse assessed as blockade of righting reflex by measuring failure to right to normal position at 640 mg/kg, ip measured for 30 secs. The class given is functional, organism-based. Also noted: dose 640 mg/kg.
Data set [26] deals with Mus musculus. In words: Neuroleptic activity in mouse assessed as blockade of corneal reflex by measuring failure to blink at 640 mg/kg, ip. The data set is classed as functional, organism-based. Also noted: dose 640 mg/kg. The following applies: Cornea.
In data set [27] the test system is Mus musculus. As to the kind of experiment: Neuroleptic activity in mouse assessed as blockade of traction reflex by measuring failure to grasp wire with hind paws at 640 mg/kg, ip measured for 5 secs. Also noted: dose 640 mg/kg. The data set is classed as functional, organism-based.
The next data set has as its system Felis catus. As to the kind of experiment: Induction of muscle relaxant effect in cat at 20 mg/kg, iv. Further details: dose 20 mg/kg. The data set is classed as functional, organism-based.
Data set [28] deals with Vulpes vulpes. As to the kind of experiment: Neuroleptic activity in wild fox assessed as taming effect at 16 mg/kg, ip. The data set is classed as functional, organism-based. Also noted: dose 16 mg/kg.
The subject of data set [29] is Rhesus monkey. In words: Neuroleptic activity in monkey assessed as taming effect at 16 mg/kg, ip. The settings on record: Macaca mulatta. Also noted: dose 16 mg/kg. The data set is classed as functional, organism-based.
A short description of data set [30]: Toxicity in wild fox assessed as ataxia at 32 mg/kg, ip. The class given is organism-based. Also noted: dose 32 mg/kg, route intraperitoneal. The following applies: vulpes vulpes, in vivo.
The test system of data set [31] is Vulpes vulpes. In words: Neuroleptic activity in wild fox assessed as taming effect at 32 mg/kg, ip. The class given is functional, organism-based. Further details: dose 32 mg/kg.
Where [32] appears, read: Mus musculus, ip, read-out: ED50.

Molecules are shown by their SMILES. Calls of active or inactive are those of the source. The calls are words filed in the database; no cut-off is given here.

For the compound `CCN(CC)C(=O)C1CN2CCc3cc(OC)c(OC)cc3C2CO1` (stereo in doubt; 19), the figures for the Time with Gerbillinae [1], in the data set on Gerbillinae [2] and with Gerbillinae [3] were 2.2 s, 1.2 s and 0.5 s, respectively. Also, the ED50 with Mus musculus [4] (setting [32]) is 125 mg/kg; in the data set on Mus musculus [5] (setting [32]), 400 mg/kg.

For `CN(C)CCCN1c2ccccc2Sc2ccc(Cl)cc21` [CHLORPROMAZINE], the Activity result in data set [6] is “Non-toxic”. In the data set on Vulpes vulpes [7], the outcome was Active. In addition, the results for the Time with Gerbillinae [8], in the data set on Gerbillinae [11] and in the data set on Gerbillinae [12] were 1.1 s, 1 s and 0.8 s, respectively. Moreover, the median effective dose (ED50) with Mus musculus [9] came out at 160 mg/kg; in the data set with Mus musculus [10] it was 115 mg/kg; in the data set with Mus musculus [4] (setting [32]), 6 mg/kg; with Mus musculus [5] (setting [32]) it was 74 mg/kg.

As to `CCN(CC)C(=O)[C@H]1CN2CCc3cc(OC)c(OC)cc3[C@H]2CO1` (relative stereo), the ED50 with Mus musculus [4] (setting [32]) turned out to be 110 mg/kg; with Mus musculus [5] (setting [32]), 500 mg/kg.

With `COc1cc2c(cc1OC)[C@H]1CO[C@@H](C(=O)N3CCCC3)CN1CC2` (relative stereo), the ED50 was 180 mg/kg in the data set on Mus musculus [4] (setting [32]) and more than 640 mg/kg in the data set with Mus musculus [5] (setting [32]).

Consider `CCCC(C)(COC(N)=O)COC(N)=O` [MEPROBAMATE], for which the ED50 amounted to 400 mg/kg with Mus musculus [9], 320 mg/kg in the data set with Mus musculus [10], 160 mg/kg in the data set on Mus musculus [4] (setting [32]) and 225 mg/kg with Mus musculus [5] (setting [32]).

As for `CCN(CC)C(=O)[C@H]1CN2CCc3cc(OC)c(OC)cc3[C@H]2CO1.Cl` (racemic), the 50% lethal dose (LD50) stood at 1100 mg/kg in [13] and 1400 mg/kg in data set [19]. For the same compound, the Time is 0.5 s with Gerbillinae [14], 0.8 s in the data set on Gerbillinae [17], 0.6 s in the data set with Gerbillinae [12] and 0.8 s with Gerbillinae [20]. Moreover, the Activity result (in data set [15]; in the data set on Rhesus monkey [16]) was “Non-toxic” each time. Further, the minimal effective dose with Gerbillinae [18] is 25 mg/kg. For the same compound, the ED50 with Mus musculus [4] (setting [32]) amounted to 100 mg/kg; in the data set with Mus musculus [5] (setting [32]) it was 400 mg/kg.

As to `COc1cc2c(cc1OC)[C@H]1CO[C@@H](C(=O)N3CCOCC3)CN1CC2` (relative stereo), the values for the 50% effective dose (ED50) in the data set with Mus musculus [4] (setting [32]) and with Mus musculus [5] (setting [32]) were 200 mg/kg and more than 640 mg/kg, respectively.

Regarding `CCC1(c2ccccc2)C(=O)NC(=O)NC1=O` [PHENOBARBITAL], the ED50 was 100 mg/kg with Mus musculus [9], 140 mg/kg with Mus musculus [10], 64 mg/kg in the data set with Mus musculus [4] (setting [32]) and 82 mg/kg in the data set on Mus musculus [5] (setting [32]).

Regarding `COc1cc2c(cc1OC)[C@H]1CO[C@H](C#N)CN1CC2` (relative stereo), the ED50 is 180 mg/kg with Mus musculus [4] (setting [32]) and more than 640 mg/kg with Mus musculus [5] (setting [32]).

For the compound `CCN(CC)C(=O)C1CN2CCc3cc(OC)c(OC)cc3C2CO1` (stereo in doubt; 20), the Time was 0.5 s with Gerbillinae [21], 1.2 s with Gerbillinae [22], 2.4 s in the data set on Gerbillinae [3] and 0.6 s in the data set on Gerbillinae [23]. Further, the ED50 in the data set on Mus musculus [4] was 150 mg/kg; with Mus musculus [5], 460 mg/kg.

Turning to `COc1cc2c(cc1OC)[C@H]1CO[C@@H](C(=O)N3CCCCC3)CN1CC2` (relative stereo), the ED50 in the data set on Mus musculus [9] came out at 450 mg/kg; in the data set with Mus musculus [10] it was 280 mg/kg; with Mus musculus [4] (setting [32]) it was 180 mg/kg; with Mus musculus [5] (setting [32]), 280 mg/kg.

In the case of `CCOC(=O)[C@H]1CN2CCc3cc(OC)c(OC)cc3[C@H]2CO1` (relative stereo), the result with Mus musculus [24], in the data set on Mus musculus [25], in the data set with Mus musculus [26] and in the data set with Mus musculus [27] was inactive.

For `CCN(CC)C(=O)[C@H]1CN2CCc3cc(OC)c(OC)cc3[C@H]2CO1` (racemic), the outcome in the data set with Felis catus, in the data set with Vulpes vulpes [28] and in the data set on Rhesus monkey [29] was Active.

In the case of `CNC1=Nc2ccccc2C(c2ccccc2)=[N+]([O-])C1`, the Activity entry in [30] is given as “Non-toxic”. The result with Vulpes vulpes [31] was Active.
